The values below come from US11426473B2, “Nitrogen-containing compound or salt thereof, or metal complex thereof” (FUJIFILM Corporation, priority 2013, dated 2022).

SMILES strings stand for the structures. Like-named read-outs stand apart in the source and are kept apart here.

The subject of data set [1] is U87MG cells subcutaneous tumor. In words: Concentration of radioactivity in tumor of labeled compounds (Test Example 4). Type of data set: in vivo, mouse. The conditions noted are these: tail vein, 111In 740 kBq, 64Cu and 90Y 500 kBq. The protocol: U87MG cells were subcutaneously transplanted at 1×10^7 cells/mouse to the right flank of Balb/cAJcl-nu/nu (CLEA Japan, Inc. or Japan SLC, Inc., 6 to 9 weeks old). After 2 to 3 weeks, the mice were divided into groups each involving 3 individuals per point in time when their tumors became 200 to 500 mm^3. The ^111In-labeled compound (740 kBq) was administered to the tail veins of the mice.
After a given time, the animals were sacrificed to extract their tumors. The weights of the tumors were measured, and the radioactivity was measured using a gamma counter to calculate the concentration of radioactivity in the tumors (% ID/g). In the same way as above, the concentration of radioactivity in the tumors (% ID/g) was calculated for the ^64Cu-labeled compound (500 kBq) and the ^90Y-labeled compound (500 kBq).

For a further data set, the target named is T1, Integrin αvβ3 (Homo sapiens, UniProt P05106+P06756).
T1 construct: purchased Chemicon International, Inc
In words: Integrin αvβ3 binding affinity test. The protocol: (§1) […] αvβ3 (Chemicon International, Inc.) was immobilized on each well of a 96-well plate (Corning Inc.). Each well was blocked with a 1% Block Ace (DS Pharma Biomedical Co., Ltd) solution and then washed with T-PBS (PBS containing 0.05% Tween 20). Evaluation compound solutions having a 2-fold concentration (10 concentrations of 3.16-fold dilutions from 0.3 μmol/L, buffer (20 mM Tris-HCl pH 7.5, 150 mM NaCl, 1 mM CaCl2, 1 mM MgCl2, and 1 mM MnCl2)) and a 4 μg/mL biotinylated vitronectin solution (vitronectin (Upstate Biotechnology Inc.) was labeled with EZ-Link Sulfo-NHS-Biotinylation Kit (Pierce/Thermo Fisher Scientific Inc.) and then concentration-adjusted) were each added at 50 μL/well, and the plate was shaken at room temperature for 2 hours. After washing with T-PBS, a 0.2 μg/mL avidin peroxidase (Pierce/Thermo Fisher Scientific Inc.) solution was added thereto, and the plate was shaken at room temperature for 1 hour. After washing with T-PBS, color was developed by an o-phenylenediamine (Sigma-Aldrich Inc.) solution (the reaction was terminated by the addition of 4 mol/L sulfuric acid), and the absorbance was measured (490 nm, Reference: 595 nm). The IC50 value was calculated using XLfit 3.0 (ID Business Solutions Ltd.). RGDfV (Bachem AG) was measured in duplicate as a QC sample for each plate.

The target in a further data set is T2, Integrin αvβ5 (Homo sapiens, UniProt P06756+P18084).
T2 construct: purchased Chemicon International, Inc
In words: Integrin αvβ5 binding affinity test. The protocol: as §1, with “αvβ5” for “αvβ3”, “PBST (10 mM Na2HPO4 pH 7.5, 150 mM NaCl, and 0.01%” for “T-PBS (PBS containing 0.05%”, “PBST,” for “T-PBS,”

The mark [2] stands for this setting: inhibition of biotinylated vitronectin binding to immobilized αvβ3, read-out: IC50 value αv β3.
Setting [3] is: inhibition of biotinylated vitronectin binding to immobilized αvβ5, read-out: IC50 value αvβ5.

T1 sequence (P06756 31-889 limits assumed): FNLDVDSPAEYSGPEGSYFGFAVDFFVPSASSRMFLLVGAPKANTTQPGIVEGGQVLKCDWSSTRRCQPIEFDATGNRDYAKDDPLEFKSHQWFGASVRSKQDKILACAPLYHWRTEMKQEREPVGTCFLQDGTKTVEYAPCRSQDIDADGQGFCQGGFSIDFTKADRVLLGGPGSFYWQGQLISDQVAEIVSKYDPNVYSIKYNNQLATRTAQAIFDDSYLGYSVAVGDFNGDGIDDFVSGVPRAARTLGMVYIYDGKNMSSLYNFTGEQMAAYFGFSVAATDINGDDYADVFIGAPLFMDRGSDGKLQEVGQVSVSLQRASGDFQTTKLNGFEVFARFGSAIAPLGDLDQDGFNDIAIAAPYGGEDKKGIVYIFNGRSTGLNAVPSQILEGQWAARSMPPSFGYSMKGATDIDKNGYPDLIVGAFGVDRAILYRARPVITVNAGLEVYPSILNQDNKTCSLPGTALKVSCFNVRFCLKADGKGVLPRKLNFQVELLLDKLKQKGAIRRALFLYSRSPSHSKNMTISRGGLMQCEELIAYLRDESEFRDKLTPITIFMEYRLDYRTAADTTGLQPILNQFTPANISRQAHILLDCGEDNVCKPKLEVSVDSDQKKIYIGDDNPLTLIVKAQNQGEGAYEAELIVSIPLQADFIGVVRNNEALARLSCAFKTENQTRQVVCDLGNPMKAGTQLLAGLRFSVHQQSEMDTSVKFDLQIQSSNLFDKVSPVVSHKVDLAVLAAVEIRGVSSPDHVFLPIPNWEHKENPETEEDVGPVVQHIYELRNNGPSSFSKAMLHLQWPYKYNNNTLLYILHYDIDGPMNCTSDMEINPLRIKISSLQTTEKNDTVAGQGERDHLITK
T1 sequence (P06756 891-1048 partner limits assumed): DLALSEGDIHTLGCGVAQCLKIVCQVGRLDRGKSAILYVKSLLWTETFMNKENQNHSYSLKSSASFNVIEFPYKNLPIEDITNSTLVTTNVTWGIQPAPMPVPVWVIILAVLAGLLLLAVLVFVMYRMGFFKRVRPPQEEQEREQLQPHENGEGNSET
T1 sequence (P05106 27-788): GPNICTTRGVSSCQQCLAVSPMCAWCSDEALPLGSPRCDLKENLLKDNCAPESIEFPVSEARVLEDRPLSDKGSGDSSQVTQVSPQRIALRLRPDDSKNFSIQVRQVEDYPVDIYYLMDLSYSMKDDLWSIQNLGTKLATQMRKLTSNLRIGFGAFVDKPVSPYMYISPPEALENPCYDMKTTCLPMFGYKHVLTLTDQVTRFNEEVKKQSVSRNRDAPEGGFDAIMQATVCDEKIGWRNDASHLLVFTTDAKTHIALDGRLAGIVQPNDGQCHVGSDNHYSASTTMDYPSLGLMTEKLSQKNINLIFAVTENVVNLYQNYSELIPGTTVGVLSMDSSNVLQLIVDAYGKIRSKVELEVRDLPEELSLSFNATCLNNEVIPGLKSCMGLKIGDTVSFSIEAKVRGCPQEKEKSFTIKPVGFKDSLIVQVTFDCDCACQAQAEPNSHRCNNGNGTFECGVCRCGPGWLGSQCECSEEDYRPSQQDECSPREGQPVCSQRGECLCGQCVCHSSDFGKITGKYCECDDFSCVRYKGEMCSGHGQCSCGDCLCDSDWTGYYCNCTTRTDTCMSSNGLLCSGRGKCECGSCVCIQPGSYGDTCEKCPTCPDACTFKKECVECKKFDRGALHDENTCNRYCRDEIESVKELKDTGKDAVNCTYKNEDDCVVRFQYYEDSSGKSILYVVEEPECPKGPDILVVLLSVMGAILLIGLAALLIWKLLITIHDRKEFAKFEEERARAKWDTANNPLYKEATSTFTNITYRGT
T2 sequence (P06756 31-889 limits assumed): as the sequence (P06756 31-889 limits assumed) above
T2 sequence (P06756 891-1048 partner limits assumed): as the sequence (P06756 891-1048 partner limits assumed) above
T2 sequence (P18084 24-799): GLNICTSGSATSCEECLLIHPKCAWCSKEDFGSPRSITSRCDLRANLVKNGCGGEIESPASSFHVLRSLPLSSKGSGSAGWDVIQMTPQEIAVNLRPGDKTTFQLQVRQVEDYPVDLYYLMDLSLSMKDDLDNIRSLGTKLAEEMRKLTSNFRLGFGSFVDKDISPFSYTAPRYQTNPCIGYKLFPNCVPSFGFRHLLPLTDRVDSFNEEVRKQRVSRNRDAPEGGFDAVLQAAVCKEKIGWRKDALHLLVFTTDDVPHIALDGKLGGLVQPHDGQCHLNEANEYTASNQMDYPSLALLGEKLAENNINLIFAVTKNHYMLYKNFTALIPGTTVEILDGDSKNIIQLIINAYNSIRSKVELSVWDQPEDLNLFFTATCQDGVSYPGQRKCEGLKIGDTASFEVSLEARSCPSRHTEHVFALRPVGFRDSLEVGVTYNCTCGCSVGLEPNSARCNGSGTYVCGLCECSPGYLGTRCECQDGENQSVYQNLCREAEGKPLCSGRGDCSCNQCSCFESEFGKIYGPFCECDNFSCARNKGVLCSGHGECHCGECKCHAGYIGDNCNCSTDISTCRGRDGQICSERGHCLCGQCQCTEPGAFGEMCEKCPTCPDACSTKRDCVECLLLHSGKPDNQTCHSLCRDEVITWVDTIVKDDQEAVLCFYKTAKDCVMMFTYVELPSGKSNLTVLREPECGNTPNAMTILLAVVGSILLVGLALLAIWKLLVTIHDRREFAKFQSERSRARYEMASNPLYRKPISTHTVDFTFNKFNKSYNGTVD

Regarding `O=C([O-])CN1CCN(CC(=O)[O-])CCN(CC(=O)NC(CS(=O)(=O)O)C(=O)NC(CS(=O)(=O)O)C(=O)NCCNC(=O)CCCOc2cncc(C(CC(=O)O)n3ccc4cc(OCCc5ccc6c(n5)NCCC6)ccc43)c2)CCN(CC(=O)[O-])CC1.[111In+3]` (mixture of isomers) [[^111In]-(I21)], the “Concentration of radioactivity in tumor” value was found to be 10.60 % ID/g in data set [1] (4 hours later) and 9.95 % ID/g in data set [1] (24 hours later). For `Cc1cc(OCCCC(=O)NCCNC(=O)[C@H](CS(=O)(=O)O)NC(=O)CCC(C(=O)O)N2CCCN3CCN(CCCN(CC(=O)O)CC3)CC2)cc(C)c1S(=O)(=O)N[C@@H](CNC(=O)CCCCc1ccc2c(n1)NCCC2)C(=O)O` (single isomer, unassigned) [Ab9-a], the IC50 at Integrin αvβ3 (setting [2]) and at Integrin αvβ5 (setting [3]) was below 1 nM throughout. With `Cc1cc(OCCCC(=O)NCCNC(=O)[C@H](CS(=O)(=O)O)NC(=O)CCC(C(=O)O)N2CCCN3CCN(CCCN(CC(=O)O)CC3)CC2)cc(C)c1S(=O)(=O)N[C@@H](CNC(=O)CCCCc1ccc2c(n1)NCCC2)C(=O)O` (single isomer, unassigned) [Ab9-b], the IC50 at Integrin αvβ3 (setting [2]) and at Integrin αvβ5 (setting [3]) was below 1 nM each time. As for `Cc1cc(OCCCC(=O)NCCNC(=O)C(CS(=O)(=O)O)NC(=O)CN2CCN3CCN4CCN(CC2)CC(=O)[O][In]([O]C(=O)C3)[O]C(=O)C4)cc(C)c1S(=O)(=O)NC(CNC(=O)CCCCc1ccc2c(n1)NCCC2)C(=O)O` (stereo not shown) [AA], the IC50 on Integrin αvβ3 and on Integrin αvβ5 was below 1 nM each time. As for `Cc1cc(OCCCC(=O)NCCNC(=O)[C@H](CS(=O)(=O)O)NC(=O)CC[C@H](C(=O)O)N2CCN(CC(=O)O)CCN(CC(=O)O)CC2)cc(C)c1S(=O)(=O)N[C@@H](CNC(=O)CCCCc1ccc2c(n1)NCCC2)C(=O)O` [Aa7, 2,2′-(7-((R)-1-carboxy-4-(((R)-1-((2-(4-(4-(N—((S)-1-carboxy-2-(5-(5,6,7,8-tetrahydro-1,8-naphthyridin-2-yl)pentanamido)ethyl)sulfamoyl)-3,5-dimethylphenoxy)butanamido)ethyl)amino)-1-oxo-3-sulfopropan-2-yl)amino)-4-oxobutyl)-1,4,7-triazonane-1,4-diyl)diacetic acid], the IC50 on Integrin αvβ3 (setting [2]) and at Integrin αvβ5 (setting [3]) was below 1 nM throughout. Regarding `O=C(O)C[C@H](NC(=O)c1ccc(CCc2ccc3c(n2)NCCC3)cc1)c1ccc(OCCCC(=O)NCCNC(=O)[C@H](CS(=O)(=O)O)NC(=O)[C@H](CS(=O)(=O)O)NC(=O)CN2CCN(CC(=O)O)CCN(CC(=O)O)CCN(CC(=O)O)CC2)c(F)c1` [Compound Q12, 2,2′,2″-(10-((4R,7R)-16-(4-((S)-2-carboxy-1-(4-(2-(5,6,7,8-tetrahydro-1,8-naphthyridin-2-yl)ethyl)benzamido)ethyl)-2-fluorophenoxy)-2,5,8,13-tetraoxo-4,7-bis(sulfomethyl)-3,6,9,12-tetraazahexadecyl)-1,4,7,10-tetraazacyclododecane-1,4,7-triyl)triacetic acid], the 50% inhibitory concentration (IC50) (commonly the concentration that gives 50% inhibition) on Integrin αvβ3 (setting [2]) was below 1 nM. For `Cc1cc(OCCCC(=O)NCCNC(=O)[C@H](CS(=O)(=O)O)NC(=O)CN2CCN(CC(=O)[O-])CCN(CC(=O)[O-])CCN(CC(=O)[O-])CC2)cc(C)c1S(=O)(=O)N[C@@H](CNC(=O)c1ccc(CCc2ccc3c(n2)NCCC3)cc1)C(=O)O.[111In+3]` [[^111In]-(B2)], the “Concentration of radioactivity in tumor” value came out at 8.58 % ID/g in data set [1] (4 hours later) and 11.00 % ID/g in data set [1] (24 hours later). Taken in the same sequence, the figures for `Cc1cc(OCCCC(=O)NCCNC(=O)COCCOCCNC(=O)CN2CCN(CC(=O)[O-])CCN(CC(=O)[O-])CCN(CC(=O)[O-])CC2)cc(C)c1S(=O)(=O)N[C@@H](CNC(=O)c1ccc(CCc2ccc3c(n2)NCCC3)cc1)C(=O)O.[111In+3]` [[^111In]-(D3)] were 10.50 % ID/g and 7.73 % ID/g. As to `Cc1cc(OCCCC(=O)NCCNC(=O)COCCOCCNC(=O)C(CCCCN)NC(=O)CN2CCN(CC(=O)[O-])CCN(CC(=O)[O-])CCN(CC(=O)[O-])CC2)cc(C)c1S(=O)(=O)NC(CNC(=O)c1ccc(CCc2ccc3c(n2)NCCC3)cc1)C(=O)O.[111In+3]` (stereo not shown) [[^111In]-(E3)], the “Concentration of radioactivity in tumor” value was 11.00 % ID/g in data set [1] (4 hours later) and 12.40 % ID/g in data set [1] (24 hours later). Taken in the same sequence, the figures for `Cc1cc(OCCCC(=O)NCCNC(=O)COCCOCCNC(=O)COCCOCCNC(=O)CN2CCN(CC(=O)[O-])CCN(CC(=O)[O-])CCN(CC(=O)[O-])CC2)cc(C)c1S(=O)(=O)N[C@@H](CNC(=O)c1ccc(CCc2ccc3c(n2)NCCC3)cc1)C(=O)O.[111In+3]` [[^111In]-(F3)] were 11.80 % ID/g and 8.41 % ID/g. For `Cc1cc(OCCCC(=O)NCCNC(=O)COCCOCCNC(=O)[C@H](CS(=O)(=O)O)NC(=O)CN2CCN(CC(=O)[O-])CCN(CC(=O)[O-])CCN(CC(=O)[O-])CC2)cc(C)c1S(=O)(=O)N[C@@H](CNC(=O)c1ccc(CCc2ccc3c(n2)NCCC3)cc1)C(=O)O.[111In+3]` [[^111In]-(G3)] the same measures were 10.50 % ID/g and 9.82 % ID/g. Taken in the same sequence, the figures for `Cc1cc(OCCCC(=O)NCCNC(=O)C(CS(=O)(=O)O)NC(=O)CCC(NC(=O)CN2CCN(CC(=O)[O-])CCN(CC(=O)[O-])CCN(CC(=O)[O-])CC2)C(=O)NC(CS(=O)(=O)O)C(=O)NCCNC(=O)CCCOc2cc(C)c(S(=O)(=O)NC(CNC(=O)c3ccc(CCc4ccc5c(n4)NCCC5)cc3)C(=O)O)c(C)c2)cc(C)c1S(=O)(=O)NC(CNC(=O)c1ccc(CCc2ccc3c(n2)NCCC3)cc1)C(=O)O.[111In+3]` (stereo not shown) [[^111In]-(H9)] were 9.17 % ID/g and 8.74 % ID/g. In the case of `Cc1cc(OCCCC(=O)NCCNC(=O)[C@H](CS(=O)(=O)O)NC(=O)[C@H](CS(=O)(=O)O)NC(=O)CN2CCN(CC(=O)[O-])CCN(CC(=O)[O-])CCN(CC(=O)[O-])CC2)cc(C)c1S(=O)(=O)N[C@@H](CNC(=O)c1ccc(CCc2cccc(N)n2)cc1)C(=O)O.[111In+3]` [[^111In]-(N3)], the “Concentration of radioactivity in tumor” value came to 9.75 % ID/g in data set [1] (4 hours later) and 5.93 % ID/g in data set [1] (24 hours later). As for `Cc1cc(OCCCC(=O)NCCNC(=O)C(CS(=O)(=O)O)NC(=O)C(CS(=O)(=O)O)NC(=O)CN2CCN(CC(=O)[O-])CCN(CC(=O)[O-])CCN(CC(=O)[O-])CC2)cc(C)c1S(=O)(=O)NC(CNC(=O)CCCCc1ccc2c(n1)NCCC2)C(=O)O.[111In+3]` (stereo not shown) [[^111In]-(O10)], the “Concentration of radioactivity in tumor” value in data set [1] (4 hours later) was 12.80 % ID/g; in data set [1] (24 hours later), 12.40 % ID/g.

For the molecule `Cc1cc(OCCCC(=O)NCCNC(=O)[C@H](CS(=O)(=O)O)NC(=O)[C@H](CS(=O)(=O)O)NC(=O)CN2CCN(CC(=O)[O-])CCN(CC(=O)[O-])CCN(CC(=O)[O-])CC2)cc(C)c1S(=O)(=O)N[C@@H](CNC(=O)c1ccc(CCc2ccc3c(n2)NCCC3)s1)C(=O)O.[111In+3]` [[^111In]-(X9)], the “Concentration of radioactivity in tumor” value in data set [1] (4 hours later) and in data set [1] (24 hours later) was 8.54 % ID/g in each case.

For the molecule `Cc1cc(OCCCC(=O)NCCNC(=O)C(CS(=O)(=O)O)NC(=O)C(CS(=O)(=O)O)NC(=O)CN2CCN(CC(=O)[O-])CCN(CC(=O)[O-])CCN(CC(=O)[O-])CC2)cc(C)c1S(=O)(=O)NC(CNC(=O)c1ccc(CCCNc2ccccn2)cc1)C(=O)O.[111In+3]` (stereo not shown) [[^111In]-(Z8)], the figures for the “Concentration of radioactivity in tumor” value in data set [1] (4 hours later) and in data set [1] (24 hours later) were 6.95 % ID/g and 3.34 % ID/g, respectively.
